This data set is described as follows: wn = mass fraction of the nth substance listed. The note with it: 288.15 K, 100 kPa, Liquid, Pycnometric method.

Numbers after ± are expanded uncertainties.

For three molecules, mass density results are on record in the NIST ThermoML archive (doi:10.1021/acs.jced.5b01111).

As a reminder, the mass density is mass per unit of volume. As to `[Cl-].[K+]` [potassium chloride] + O, the mass density (w1 = 0.2472) was 1168.2 ± 2.9 kg/m3. As for `O=S(=O)([O-])[O-].[K+].[K+]` [potassium sulfate] + O, the mass density (w1 = 0.0912) was found to be 1075.6 ± 2.4 kg/m3. In the case of `O=P([O-])(O)O.[K+]` [monopotassium phosphate] + O, the mass density (w1 = 0.1653) was 1122.9 ± 2.6 kg/m3.
